ChEMBL document CHEMBL1201862, “PubChem BioAssay data set” (2004)
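Each compound was tested at five concentrations against cells in 96-well plates for 48 hours. GI50 is the concentration that inhibits growth by half.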 The source made the active and inactive calls. No stated cut-off is given here; in the data, active = GI50 up to about 1.1 µM and inactive = higher.

Assays:
Test in all cases: DTP human tumour cell line panel, 48 h
MDA-MB-231 = tested on: MDA-MB-231
SF-268 = tested on: SF-268
NCI-H522 = tested on: NCI-H522
SN12C = tested on: SN12C
SF-295 = tested on: SF-295
SK-MEL-5 = tested on: SK-MEL-5
SW-620 = tested on: SW-620
HOP-92 = tested on: HOP-92
HCT-15 = tested on: HCT-15
OVCAR-8 = tested on: OVCAR-8
NCI-H460 = tested on: NCI-H460
UACC-257 = tested on: UACC-257
OVCAR-5 = tested on: OVCAR-5
UO-31 = tested on: UO-31
OVCAR-3 = tested on: OVCAR-3
HOP-62 = tested on: HOP-62
EKVX = tested on: EKVX
COLO 205 = tested on: COLO 205
MCF7 = tested on: MCF7

| SMILES | GI50 (MDA-MB-231) | GI50 (SF-268) | GI50 (NCI-H522) | GI50 (SN12C) | GI50 (SF-295) | GI50 (SK-MEL-5) | GI50 (SW-620) | GI50 (HOP-92) | GI50 (HCT-15) [µM] | GI50 (OVCAR-8) | GI50 (NCI-H460) | GI50 (UACC-257) | GI50 (OVCAR-5) | GI50 (UO-31) | GI50 (OVCAR-3) | GI50 (HOP-62) | GI50 (EKVX) | GI50 (COLO 205) | GI50 (MCF7) |
| --- | --- | --- | --- | --- | --- | --- | --- | --- | --- | --- | --- | --- | --- | --- | --- | --- | --- | --- | --- |
| O=C(O)CSCC(=O)O | > 100 µM (inactive) | > 100 µM (inactive) | > 100 µM (inactive) | > 100 µM (inactive) | > 100 µM (inactive) | > 100 µM (inactive) | > 100 µM (inactive) | > 100 µM (inactive) | > 100 | > 100 µM (inactive) | > 100 µM (inactive) | > 100 µM (inactive) | > 100 µM (inactive) | > 100 µM (inactive) | > 100 µM (inactive) | > 100 µM (inactive) | > 100 µM (inactive) | – | – |
| C#CCCOC1(OC)N=NC(C)(C)O1 (configuration not stated) | > 100 µM (inactive) | > 100 µM (inactive) | > 100 µM (inactive) | > 100 µM (inactive) | > 100 µM (inactive) | > 100 µM (inactive) | > 100 µM (inactive) | > 100 µM (inactive) | > 100 | > 100 µM (inactive) | > 100 µM (inactive) | > 100 µM (inactive) | > 100 µM (inactive) | > 100 µM (inactive) | > 100 µM (inactive) | > 100 µM (inactive) | > 100 µM (inactive) | > 100 µM (inactive) | – |
| COc1ccc(OCC(=N/NC(=O)c2ccncc2)/N=C/c2cccnc2)cc1 | > 100 µM (inactive) | > 100 µM (inactive) | 13.1 µM (inactive) | > 100 µM (inactive) | 84.7 µM (inactive) | – | 53.1 µM (inactive) | – | 60.7 | > 100 µM (inactive) | > 100 µM (inactive) | > 100 µM (inactive) | > 100 µM (inactive) | – | 65.8 µM (inactive) | 72.1 µM (inactive) | > 100 µM (inactive) | 64.6 µM (inactive) | 73.1 µM (inactive) |
| CC(C)(C)OC(=O)NCCCC(=O)NC1(c2cc3ccccc3s2)CCCCC1 | – | 17.9 µM (inactive) | 13.1 µM (inactive) | 17.5 µM (inactive) | 16.6 µM (inactive) | 5.89 µM (inactive) | 15.8 µM (inactive) | 12.9 µM (inactive) | 15.6 | 19 µM (inactive) | 17 µM (inactive) | 13.6 µM (inactive) | – | 4.61 µM (inactive) | 16.3 µM (inactive) | 21.4 µM (inactive) | 8.26 µM (inactive) | 13.8 µM (inactive) | 16.3 µM (inactive) |
| CCOC(=O)C1=C(N2CCCC2)NC(=O)CC1=O | > 100 µM (inactive) | > 100 µM (inactive) | > 100 µM (inactive) | > 100 µM (inactive) | > 100 µM (inactive) | > 100 µM (inactive) | > 100 µM (inactive) | > 100 µM (inactive) | > 100 | > 100 µM (inactive) | – | > 100 µM (inactive) | > 100 µM (inactive) | > 100 µM (inactive) | > 100 µM (inactive) | > 100 µM (inactive) | > 100 µM (inactive) | > 100 µM (inactive) | – |
| N#Cc1c2c(c(Nc3cccc(C(F)(F)F)c3)n3c1nc1ccccc13)CCCC2 | 17.5 µM (inactive) | 15.2 µM (inactive) | 1.47 µM (inactive) | 22.8 µM (inactive) | 21.8 µM (inactive) | 60.8 µM (inactive) | 39.1 µM (inactive) | 3.99 µM (inactive) | 39.2 | 15.1 µM (inactive) | 23.1 µM (inactive) | 22.2 µM (inactive) | 18.9 µM (inactive) | – | 14.6 µM (inactive) | 16 µM (inactive) | 20.8 µM (inactive) | > 100 µM (inactive) | – |
| CCOC(=O)C(NC(=O)c1ccccc1)(N1CCN(c2cc3c(cc2F)c(=O)c(C(=O)O)cn3C2CC2)CC1)C(F)(F)F (configuration not stated) | 12.9 µM (inactive) | 18.1 µM (inactive) | – | 26.4 µM (inactive) | 27 µM (inactive) | 15.8 µM (inactive) | 21.5 µM (inactive) | 19.8 µM (inactive) | – | 31.3 µM (inactive) | 21 µM (inactive) | – | 20.4 µM (inactive) | 23 µM (inactive) | 23.4 µM (inactive) | 31 µM (inactive) | 24.9 µM (inactive) | 17.1 µM (inactive) | – |
| CCOC(=O)CCC(NC(=O)c1ccc(OCc2ccc3nc(OC)c(OC)nc3c2)cc1)C(=O)OCC (configuration not stated) | – | 57.7 µM (inactive) | 24.7 µM (inactive) | 45.3 µM (inactive) | 59.4 µM (inactive) | 38.4 µM (inactive) | > 100 µM (inactive) | 40.9 µM (inactive) | 75.5 | > 100 µM (inactive) | 22.6 µM (inactive) | 29.1 µM (inactive) | > 100 µM (inactive) | 64.6 µM (inactive) | 20.2 µM (inactive) | > 100 µM (inactive) | – | 16.7 µM (inactive) | 35.1 µM (inactive) |
| COc1ccc(/C=C2\C(=O)Nc3ccccc32)cc1OC | – | > 100 µM (inactive) | 79.3 µM (inactive) | > 100 µM (inactive) | > 100 µM (inactive) | 64.4 µM (inactive) | 45.1 µM (inactive) | 44.6 µM (inactive) | 53 | > 100 µM (inactive) | 78.9 µM (inactive) | > 100 µM (inactive) | > 100 µM (inactive) | 86.3 µM (inactive) | – | > 100 µM (inactive) | > 100 µM (inactive) | > 100 µM (inactive) | – |
| N#Cc1c(-c2ccccc2)c(-c2ccccc2)cc2c(=O)c3ccc(Cl)cc3[nH]c12 | – | > 100 µM (inactive) | – | > 100 µM (inactive) | > 100 µM (inactive) | – | > 100 µM (inactive) | > 100 µM (inactive) | > 100 | > 100 µM (inactive) | > 100 µM (inactive) | > 100 µM (inactive) | > 100 µM (inactive) | > 100 µM (inactive) | > 100 µM (inactive) | > 100 µM (inactive) | > 100 µM (inactive) | > 100 µM (inactive) | – |
| Cn1c2ccccc2c2c(-c3ccccc3)[n+]3ccccc3nc21 | 32.9 µM (inactive) | 18.5 µM (inactive) | 25.4 µM (inactive) | 25.8 µM (inactive) | 46.3 µM (inactive) | 16.8 µM (inactive) | 23.2 µM (inactive) | 14.6 µM (inactive) | > 100 | 36.3 µM (inactive) | 21.9 µM (inactive) | 18.4 µM (inactive) | 50.9 µM (inactive) | > 100 µM (inactive) | 23.3 µM (inactive) | 22.5 µM (inactive) | 36.1 µM (inactive) | 43.1 µM (inactive) | – |
| CN1C=Cc2nccc3cc4c(c1c23)OCO4 | 3.08 µM (inactive) | 3.06 µM (inactive) | 0.776 µM (active) | 1.64 µM (inactive) | 1.86 µM (inactive) | 2.06 µM (inactive) | 3.64 µM (inactive) | – | 7.59 | 5.68 µM (inactive) | 0.422 µM (active) | 2.53 µM (inactive) | 6.61 µM (inactive) | 2.96 µM (inactive) | 5.53 µM (inactive) | 1.82 µM (inactive) | 1.85 µM (inactive) | 3.18 µM (inactive) | 3.03 µM (inactive) |
| CC(NC(=O)C1(N)CCCC1)C(=O)O (configuration not stated) | > 100 µM (inactive) | > 100 µM (inactive) | > 100 µM (inactive) | > 100 µM (inactive) | > 100 µM (inactive) | > 100 µM (inactive) | > 100 µM (inactive) | – | > 100 | > 100 µM (inactive) | – | > 100 µM (inactive) | > 100 µM (inactive) | > 100 µM (inactive) | > 100 µM (inactive) | > 100 µM (inactive) | > 100 µM (inactive) | > 100 µM (inactive) | > 100 µM (inactive) |
| N#Cc1c2ccc([N+](=O)[O-])cc2c(=O)n2c1sc1ccc(C(F)(F)F)cc12 | > 100 µM (inactive) | > 100 µM (inactive) | > 100 µM (inactive) | > 100 µM (inactive) | > 100 µM (inactive) | > 100 µM (inactive) | > 100 µM (inactive) | > 100 µM (inactive) | > 100 | > 100 µM (inactive) | > 100 µM (inactive) | > 100 µM (inactive) | > 100 µM (inactive) | > 100 µM (inactive) | > 100 µM (inactive) | > 100 µM (inactive) | > 100 µM (inactive) | > 100 µM (inactive) | – |
| C=C(C)[C@]12CC(C)C34OC(/C=C\C=C\CCCCCCCCC)(O[C@@H]1[C@@H]3[C@@H]1O[C@]1(CO)[C@@H](O)[C@]1(O)C(=O)C(C)=C[C@@H]41)O2 (some centres not stated) | 0.01 µM (active) | 12.8 µM (inactive) | 14.7 µM (inactive) | 2.42 µM (inactive) | 0.01 µM (active) | 11.7 µM (inactive) | – | – | 12.4 | 16.3 µM (inactive) | 0.01 µM (active) | 14.7 µM (inactive) | 17.1 µM (inactive) | 11.2 µM (inactive) | 6.41 µM (inactive) | – | 13.4 µM (inactive) | 0.0001 µM (active) | 10.6 µM (inactive) |
| CC(=O)OC1CC2CCN3C(=O)c4cc5c(cc4[C@H](C1OC(C)=O)C23)OCO5 (some centres not stated) | – | > 100 µM (inactive) | > 100 µM (inactive) | > 100 µM (inactive) | > 100 µM (inactive) | – | > 100 µM (inactive) | – | > 100 | > 100 µM (inactive) | > 100 µM (inactive) | > 100 µM (inactive) | – | > 100 µM (inactive) | > 100 µM (inactive) | > 100 µM (inactive) | > 100 µM (inactive) | > 100 µM (inactive) | – |
| O=C(c1ccco1)N1CCCN(C(=O)c2ccco2)C1=S | > 100 µM (inactive) | > 100 µM (inactive) | – | > 100 µM (inactive) | – | > 100 µM (inactive) | > 100 µM (inactive) | – | > 100 | > 100 µM (inactive) | > 100 µM (inactive) | > 100 µM (inactive) | > 100 µM (inactive) | > 100 µM (inactive) | > 100 µM (inactive) | 72.1 µM (inactive) | 2.32 µM (inactive) | > 100 µM (inactive) | 74.8 µM (inactive) |
